In publication PMC12053642, “Oral PRI-002 treatment in patients with MCI or mild AD: a randomized, double-blind phase 1b trial” (Nature Communications, 2025):
Where “and” joins values, the source holds several entries; their conditions need not be identical. Equal values may be shown once. Square brackets hold non-standard residues; d marks the D form. Peptide text beside a SMILES is read from it.

What was measured:
[1] = system: patients with MCI or mild dementia due to AD; test: CERAD word list learning and recall; type: in vivo, human; parameters: key to WL Recall (Word list recall test), Mean / WL Recall: words recalled after delay, out of the 10-word list; key to WL learn (CERAD Word list learning), Mean / WL learn: words recalled summed over 3 trials of a 10-word list; details: for WL Recall / WL learn: individual patient values, PRI-002 group; for WL learn, individual patients: one line per patient
Protocol: The CERAD Word Learning Test is a part of the CERAD cognitive test battery and assesses memory function, particularly for ADe and other dementias[34],[35]. It includes three parts: immediate recall, delayed recall, and recognition. During the test administration, a list of 10 words is read aloud three times, with the participant recalling as many as possible after each trial (immediate recall). After a delay of 5–10 min, they attempt to recall the words again (delayed recall), followed by a recognition task where they identify original words from a mixed list (recognition). The scores from the CERAD Word Learning Test are interpreted using normative data, which consider the participant’s age, gender, and education level. Normal range scores are considered between the 16th and 84th percentiles (z-score -1 to +1). For MCI scores between the 2nd and 15th percentiles (z-score -1 to -2) are expected. For significant cognitive impairment scores below the 2nd percentile (z-score < -2) are considered.

Aβ oligomers = test: CSF Aβ oligomers, sFIDA technology; type: in vivo, human
Protocol: The effect of PRI-002 on cognition and function was tested by the CERAD+ battery and CDR-SB at baseline, Day 28, and Day 56, exploratory endpoints included the change of biomarkers (p-tau, t-tau, Aβ 1-40, Aβ 1-42 and Aβ oligomers) in CSF, blood plasma; change in CERAD+ test battery and CDR-SB scores.

[2] = Pharmacokinetics of PRI-002 in plasma; details: 300 mg q.d. oral; for AUC(0-t): AUC 0-4 hours
Protocol: The effect on biomarker was assessed during baseline and after 28 days of medication. CSF collection and blood sampling were performed to determine PRI-002 concentration, which was conducted by Nuvisan (Neu-Ulm, Germany) and to exploratively estimate the effect of PRI-002 on the modulation of Aβ 1-40, Aβ 1-42, Aβ oligomers, total tau (t-tau), and phospho tau (p-tau). Aβ 1-40, Aβ 1-42, t-tau and p-tau181 were measured by immunoassay, using the Lumipulse platform (Fujirebio, Tokyo, Japan) and Aβ oligomers concentrations were determined using sFIDA technology[31]–[33] by attyloid GmbH (Düsseldorf, Germany). The effect of PRI-002 on cognitive and functional performance was measured by repetitively applying the CERAD+ battery and the Clinical Dementia Rating (CDR) at baseline, at Day 28 and additionally at the last visit (Day 56).
Secondary endpoints included the evaluation of pharmacokinetic characteristics of PRI-002 by determination of maximum plasma concentration (Cmax), time to reach maximum plasma concentration (Tmax), half-life (t1/2) calculated from PRI-002 plasma concentrations; and the determination of CSF concentrations of PRI-002.
4 Pharmacokinetic sampling X X
1 Heart rate and blood pressure: Day 1: at pre-dose and 2 hours±15 minutes; Day 14 and 28: at pre-
dose; 2 ECG Day 1: at pre-dose and 2 hours ± 15 minutes; Day 14 and 28: at pre-dose; 3 Safety
MRI was scheduled at screening and within three days after Day 28 and Day 56;4 Pharmacokinetic
sampling Day 1 and Day 28: at pre-dose, 30 minutes ± 15 minutes, 1 hour ± 15 minutes, 2
hours ± 15 minutes, and 4 hours ± 15 minutes.

[3] = human, plasma, po, 300 mg, plasma, Day 1 (n=9), Mean ± SD, MCI/mild AD patients
[4] = human, plasma, po, 300 mg, plasma, Day 28 (n=8), Mean ± SD, MCI/mild AD patients
[5] = human, plasma, po, 300 mg, plasma, Day 28 (n=8), Median, MCI/mild AD patients

Q: Which “WL Recall” value ([1]; Day 1) does the source give for CC(C)C[C@@H](NC(=O)[C@H](NC(=O)[C@H]1CCCN1)[C@H](C)O)C(=O)N[C@H](Cc1c[nH]cn1)C(=O)N[C@@H](C(=O)N[C@H](Cc1c[nH]cn1)C(=O)N[C@H](CC(N)=O)C(=O)N[C@H](CCCNC(=N)N)C(=O)N[C@H](CCCNC(=N)N)C(=O)N[C@H](CCCNC(=N)N)C(=O)N[C@H](CCCNC(=N)N)C(=O)N[C@H](CCCNC(=N)N)C(N)=O)[C@H](C)O [PRI-002] (H-[dP][dT][dL][dH][dT][dH][dN][dR][dR][dR][dR][dR]-NH2; N-terminus and C-terminus assumed) here?
A: Its value is 3 and 4 and 1 and 5 and 7 and 9.

Q: What about the WL learn ([1]; Day 1) of the same molecule?
A: Its WL learn is 14 and 10 and 13 and 11 and 20 and 16 and 25.

Q: What about the “WL learn (CERAD Word list learning), Mean” value ([1]; Day 28 (end of treatment), n=8, 300 mg q.d. oral 28 d) of the same molecule?
A: The value was 17.3 and 17.25.

Q: And the “WL Recall” value ([1]; Day 28)?
A: Its value is 4 and 5 and 0 and 6 and 10 and 7.

Q: What about the WL learn ([1]; Day 28) of the same molecule?
A: The WL learn was 15 and 14 and 12 and 16 and 25 and 17.

Q: What about the “WL Recall (Word list recall test), Mean” value ([1]; Day 28, n=8, 300 mg q.d. oral 28 d) of the same molecule?
A: The value was 6.0.

Q: And the “WL learn, individual patients” value ([1]; Day 28, 300 mg q.d. oral 28 d)?
A: Its value is 16 and 25 (2×) and 17 and 14 (2×) and 15 and 12.

Q: What about the “WL learn (CERAD Word list learning), Mean” value ([1]; Day 56 (End of Study), n=9, PV 0.036 vs placebo (Wilcoxon), 300 mg q.d. oral 28 d) of the same molecule?
A: Its value is 19.3 and 19.33.

Q: And the “performance in the CERAD word list versus placebo” value ([1]; Day 56, P ≤ 0.05, not corrected for multiplicity, 300 mg q.d. oral 28 d)?
A: Its value is “significantly better”.

Q: And the “WL Recall” value ([1]; Day 56)?
A: The value was 5 and 4 and 3 and 8 and 10.

Q: And the WL learn ([1]; Day 56)?
A: Its WL learn is 18 and 16 and 17 and 24 and 30.

Q: And the “WL Recall (Word list recall test), Mean” value ([1]; Day 56, n=9, 300 mg q.d. oral 28 d)?
A: The value was 5.4.

Q: What about the “WL learn, individual patients” value ([1]; Day 56, 300 mg q.d. oral 28 d) of the same molecule?
A: Its value is 18 (3×) and 24 and 30 and 17 (2×) and 16 (2×).

Q: What about the “verum treated patients with improvement of memory function in the CERAD word list test” value ([1]; Day 56 versus baseline, of 9 patients, 300 mg q.d. oral 28 d) of the same molecule?
A: The value was 9.

Q: What about the “Cohen's d effect size, WL learn, PRI-002 vs placebo” value ([1]; day 56, pooled SD, 300 mg q.d. oral 28 d) of the same molecule?
A: The value was 0.94.

Q: And the “Difference WL learn Baseline (day 1) to EoS (day 56), individual patients” value ([1]; one line per patient 1-9, 300 mg q.d. oral 28 d)?
A: The value was 7 and 4 (2×) and 2 and 5 and 1 and 6 and 3 (2×).

Q: And the “Aβ42 oligomers, Mean” value (Aβ oligomers; CSF, Day 28, n=9, 300 mg q.d. oral 28 d)?
A: Its value is 4.747 fM.

Q: What about the “slope Abeta oligomers, individual patients” value (Aβ oligomers; CSF, change from Day 1 to Day 28, one line per patient (n = 9), 300 mg q.d. oral 28 d) of the same molecule?
A: Its value is 1.237 and 0.635 and 0.4087 and 0.1526 and 0.3147 and -0.0095 and -0.4177 and -0.1322 and 0.7258.

Q: And the “changes in p-tau, t-tau, Aβ 1-40, Aβ 1-42 and Aβ oligomers in CSF” value (Aβ oligomers; Day 28 versus baseline and versus placebo, 300 mg q.d. oral 28 d)?
A: The value was “no significant changes”.

Q: What about the “relationship between changes in Aβ oligomer concentrations and PRI-002 plasma levels at Day 1” value (Aβ oligomers; Spearman, two-tailed, n = 9) of the same molecule?
A: Its value is “significant inverse relationship”.

Q: What about the “PRI-002 plasma level, Mean” value ([2]; Day 1, 0 h, n=9, MCI/mild AD patients) of the same molecule?
A: The value was 0 ng/mL.

Q: What about the “AUC 0-4 hours, individual patients” value ([2]; Day 1, one line per patient) of the same molecule?
A: The value was 8.54 ng·h/mL.

Q: And the “C max (PRI-002 plasma level Day 1), individual patients” value ([2]; Day 1, one line per patient)?
A: The value was 3.43 ng/mL and 1 ng/mL and 2.02 ng/mL and 3.03 ng/mL and 2.84 ng/mL and 10.2 ng/mL and 6.52 ng/mL and 10.4 ng/mL and 0.66 ng/mL and 0.70 ng/mL and 1.00 ng/mL.

Q: And the “T max, individual patients” value ([2]; Day 1, one line per patient)?
A: Its value is 0.50 h (3×) and 2.00 h and 4.00 h (3×) and 1.00 h (2×).

Q: And the Css trough ([2]; Day 28 (n=8), Max, MCI/mild AD patients)?
A: The Css trough was 7.45.

Q: And the “C max, individual patients” value ([2]; Day 28, one line per patient)?
A: The value was 1.76 ng/mL and 18.10 ng/mL and 9.37 ng/mL and 31.40 ng/mL and 2.42 ng/mL and 32.90 ng/mL and 2.24 ng/mL and 2.98 ng/mL.

Q: And the “T max, individual patients” value ([2]; Day 28, one line per patient)?
A: Its value is 0.50 h (6×) and 4.00 h and 2.00 h.

Q: What about the “PRI-002 plasma level, individual patients” value ([2]; day 1, 2 h, one line per patient) of the same molecule?
A: Its value is 0.878.

Q: What about the “PRI-002 plasma level, individual patients” value ([2]; day 1, Pre-dose, one line per patient) of the same molecule?
A: Its value is 0 ng/mL.

Q: What about the AUC(0-t) [2, 3] of the same molecule?
A: The AUC(0-t) was 9.98 ± 7.46 ng·h/mL.

Q: And the AUC(0-t) [2, 4]?
A: Its AUC(0-t) is 26.8 ± 23.8 ng·h/mL.

Q: What about the AUC(0-t) [2, 5] of the same molecule?
A: Its AUC(0-t) is 20.4 ng·h/mL.

Q: And the Cmax [2, 3]?
A: Its Cmax is 4.46 ± 3.71 ng/mL.

Q: What about the Cmax ([2]; human, plasma, po, 300 mg, plasma, Day 1 (n=9), Median, MCI/mild AD patients) of the same molecule?
A: The Cmax was 3.03 ng/mL.

Q: And the Cmax [2, 4]?
A: The Cmax was 12.6 ± 13.2 ng/mL.

Q: What about the Cmax [2, 5] of the same molecule?
A: Its Cmax is 6.2 ng/mL.

Q: What about the level at 0.5 h ([2]; human, plasma, po, 300 mg, PRI-002 plasma level, Mean, Day 1, 0.5 h, n=9, MCI/mild AD patients) of the same molecule?
A: The level at 0.5 h was 3.1 ng/mL.

Q: What about the level at 1 h ([2]; human, plasma, po, 300 mg, PRI-002 plasma level, Mean, Day 1, 1 h, n=9, MCI/mild AD patients) of the same molecule?
A: The level at 1 h was 3.5 ng/mL.

Q: And the level at 2 h ([2]; human, plasma, po, 300 mg, PRI-002 plasma level, Mean, Day 1, 2 h, n=9, MCI/mild AD patients)?
A: The level at 2 h was 2.6 ng/mL.
